Data taken from ChEMBL document CHEMBL1153457, “Effects of structural analogues of the substrate and allosteric regulator of the human mitochondrial NAD(P)+-dependent malic enzyme” (Bioorg Med Chem, 2009).
Calls of active or inactive are those of the source. No cut-off for these calls is given here.

Key:
[1] = species on record: Homo sapiens; experiment: Inhibition of human mitochondrial NADP-ME E59L mutant expressed in Escherichia coli XL-1 assessed as residual enzyme activity by spectrophotometry in presence of fumarate
[2] = species on record: Homo sapiens; experiment: Inhibition of human mitochondrial NADP-ME E59L mutant expressed in Escherichia coli XL-1 assessed as residual enzyme activity by spectrophotometry in absence of fumarate
[3] = species on record: Homo sapiens; experiment: Activation of human mitochondrial NADP-ME E59L mutant expressed in Escherichia coli XL-1 by spectrophotometry

Row | Structure (SMILES) | Activity [1] | Activity [2] | Activity [3]
1 | O=C(O)CC(=O)O | Active | Active | 
2 | O=C(O)/C=C/C(=O)O |  |  | inactive
3 | O=C(O)/C=C\C(=O)O | Active | Active | 
4 | O=C(O)/C=C/CC(=O)O | Active | Active | 
